From PMC5591244, “Novel selective, potent naphthyl TRPM8 antagonists identified through a combined ligand- and structure-based virtual screening approach” (Scientific Reports, 2017)
“Also recorded” adds a separate entry of the source.

Legend:
[1] = Preliminary PK/ADMET study; conditions: in vivo proof of concept; Table S3 not available
Description: (§1) To assess the activity of compound 1 in preclinical models of painful urologic syndromes as OBS we used an isovolumetric rat bladder animal model. A preliminary PK/ADMET study was conducted to assess the behaviour of compound 1 in vivo (Table S3).

[2] = target: TRPA1 (Homo sapiens, UniProt O75762); test: Selectivity calcium mobilization assay, TRPA1; type: cell-based; conditions: agonist 10 μM AITC
TRPA1, sequence (O75762 whole entry, species assumed): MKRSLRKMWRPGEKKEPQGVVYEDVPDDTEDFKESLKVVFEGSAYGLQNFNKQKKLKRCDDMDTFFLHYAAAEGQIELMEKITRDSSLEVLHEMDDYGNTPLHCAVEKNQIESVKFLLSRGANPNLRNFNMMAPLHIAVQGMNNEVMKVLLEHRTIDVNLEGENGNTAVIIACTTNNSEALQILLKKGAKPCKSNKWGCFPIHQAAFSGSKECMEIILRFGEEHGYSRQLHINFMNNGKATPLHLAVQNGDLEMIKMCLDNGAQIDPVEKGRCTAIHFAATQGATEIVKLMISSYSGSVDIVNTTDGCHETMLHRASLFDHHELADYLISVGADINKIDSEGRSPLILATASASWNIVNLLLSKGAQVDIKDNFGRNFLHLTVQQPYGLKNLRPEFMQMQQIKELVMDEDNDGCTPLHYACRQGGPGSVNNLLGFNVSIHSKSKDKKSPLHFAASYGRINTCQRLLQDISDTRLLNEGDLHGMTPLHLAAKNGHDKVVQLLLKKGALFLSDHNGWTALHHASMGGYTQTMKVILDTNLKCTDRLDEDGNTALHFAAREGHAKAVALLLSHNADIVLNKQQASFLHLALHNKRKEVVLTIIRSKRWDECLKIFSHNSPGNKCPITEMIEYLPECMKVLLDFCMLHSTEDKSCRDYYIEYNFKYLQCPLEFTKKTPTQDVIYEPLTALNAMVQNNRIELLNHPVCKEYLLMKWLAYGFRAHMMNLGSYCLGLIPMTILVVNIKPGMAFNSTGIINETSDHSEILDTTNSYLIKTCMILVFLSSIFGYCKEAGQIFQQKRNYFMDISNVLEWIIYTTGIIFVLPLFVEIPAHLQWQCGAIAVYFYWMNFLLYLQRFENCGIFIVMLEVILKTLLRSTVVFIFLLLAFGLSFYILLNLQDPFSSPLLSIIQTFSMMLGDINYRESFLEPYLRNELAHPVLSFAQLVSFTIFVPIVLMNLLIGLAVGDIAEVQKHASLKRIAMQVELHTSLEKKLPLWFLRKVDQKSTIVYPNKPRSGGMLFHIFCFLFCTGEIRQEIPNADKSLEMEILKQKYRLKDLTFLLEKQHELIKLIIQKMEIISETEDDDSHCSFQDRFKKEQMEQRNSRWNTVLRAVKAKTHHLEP
Description: For calcium mobilization assays, cells were seeded at 10,000 cells/well in 384-well plates coated with poly-D-lysine (MATRIX black/clear bottom #4332-CPL, Thermo Scientific, Waltham, MA, USA) in complete medium.Twenty-four hours after seeding, the plates were washed with Tyrode’s buffer with a Bio-Tek-ELx405 Microplate Washer (Merck Millipore; Billerica, MA, USA), and then 10 µl/well of a solution containing the fluorescent Ca^2+ indicator Fluo-4 NW dye was added. Cells were incubated for 1 h at room temperature before test compounds were added at 3X the concentration with respect to the final wanted concentration to be tested with a FLIPR TETRA system (Molecular Devices, Sunnyvale, CA, USA). Calcium mobilization was monitored over a period of 5 min. A second injection of 10 µl/well of a reference agonist (icilin or Cooling agent 10) at 4X concentration in assay buffer was performed using the FLIPR TETRA system. Of note, for selectivity assays, the following agonists were used: 10 μM AITC (allyl isothiocyanate) for TRPA1; 100 nM Capsaicin for TRPV1; and 20 nM GSK1016790A for TRPV4.

[3] = system: rat bladder (rhythmic bladder contraction); test: Isovolumetric bladder rat model; type: in vivo
Description: as §1
Female Wistar rats (190–250 g) obtained from Charles River Laboratories were housed according to animal welfare guidelines. Rats were housed in a specific-pathogen-free environment under strictly controlled light cycle conditions, and food and water were provided ad libitum. All experimental protocols were carried out by Urosphere in accordance with the European Community Council Directive 86/609/EEC. They were performed in accordance with French legislation concerning the protection of laboratory animals and they were approved by French Ministry for Agriculture and Fisheries which provided a currently valid license for experiments on vertebrate animals to Dr. Philippe Lluel.
For intravenous administration, compound 1 was diluted in vehicle (10% of 2:1 solutol:NMP, 16% buffer, and 74% H2O) according to body weight to obtain doses of 10 mg/kg. For intravesical administration, compound 1 was diluted at a concentration of 7.56 mg/ml in a solution of 7% 2:1 solutol:NMP, […]. Eight rats were used for the control group and eight were used for the treated group.
Rats were anesthetized with urethane (1 g/kg, i.p.), given as a divided dose of 80% initially and 20% 15 min later. After abdominal incision, the ureters were ligated and sectioned. A catheter was placed into the bladder through the urethra. Then, the urethra was ligated at the level of the urinary meatus. For cystometric experiments with intravenous compound 1 administration a bladder catheter was connected via a T-tube to a strain gauge, which was used to measure the intravesical pressure. Isovolumetric bladder contractions were induced by stepwise injections of physiological saline at room temperature (100 μl every 5 min) until stable RBC occurred. After stabilization and a control period of at least 30 min, characterized by stable and reproducible bladder contractions (basal values), the test substance or vehicle was administered by intravenous infusion (1 mL within 5 min). The effects of compound 1 on micturition frequency (MF) (peaks/30 min), time of inhibition, and threshold volume (ml) (volume inducing RBC) were analyzed. The drug effects were evaluated from the end of the administration up to 1 hour after administration. For intravesical administration, compounds were administered intravesically 3 × 100 μl every 5 min. Then, the bladder was filled with 100 μl of saline every 5 min until the occurrence of rhythmic bladder contraction (RBC) with a maximal volume of 3 mL. […]

[4] = system: TRPV3; test: Selectivity, TRPV3 as named in the discussion; type: cell-based

Compound: Clc1c(OCCNCc2ccco2)ccc2ccccc12 [Compound 1]
- PK/ADME properties [1]: adequate
- Activity on TRPA1 [2]: completely inactive; also recorded: didn’t have any effect
- Threshold volume versus vehicle, intravenous ([3]; intravenous 10 mg/kg): No significant difference
- Micturition frequency (MF) 0–30 min post-administration ([3]; intravenous 10 mg/kg, 0–30 min, 10 mg/kg): significantly decreased; also recorded: significantly reduced
- Micturition frequency (MF) 30–60 min post-administration ([3]; intravenous 10 mg/kg, 30–60 min): no effect
- Occurrence of RBC, intravesical ([3]; intravesical 2.268 mg): abolished the occurrence of RBC
- Effect on inhibition of TRPV3 [4]: didn’t have any effect
